Where “and” joins values, the source holds several entries; their conditions need not be identical. Equal entries are not always repeated. Where two headings read alike, the source gives them in different places.
Key:
[1] = biological target: T1, CDK12–cyclin K and DDB1 (Homo sapiens, UniProt Q16531+Q9NYV4, K965R); assay: TR-FRET ternary complex formation assay (compound titration); type: binding
T1 construct: His6–CDK12 (a.a. 713–1,052); full-length or beta-propeller B domain deletion (ΔBPB: a.a. 396–705 deleted) constructs of His6–DDB1ΔBPB, StrepII–Avi–DDB1, or His6–Spy–DDB1; made in house; host or cells: Trichoplusia ni High Five insect cells (baculovirus)
Outline: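 A time delay of 70 μs preceded acquisition, limiting background fluorescence; the ratio of emission at 520 versus 490 nm gave the TR-FRET value.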

[2] = test system: cyclin K–eGFP degradation reporter; assay: Cyclin K reporter stability analysis (dual-color cyclin K–eGFP reporter); type: cell-based, human; settings: Supplementary Table 2; HEK293T cycK-eGFP reporter, 5 h; read-out: Cellular assays DC50
Outline: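 Readout: flow-cytometric eGFP/mCherry ratio (geometric means, round mCherry+ gate) relative to the average of three DMSO wells. Reporter line was HEK293T–Cas9, treated 5 h with compound.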

[3] = test system: HEK293T cells; assay: Drug sensitivity assay (CellTiter-Glo viability) with or without MLN4924 pretreatment; type: cell-based, human; settings: Supplementary Table 2
Outline: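 Cas9-expressing HEK293T cells receive either vehicle or 100 nM MLN4924, then compounds 2 h afterwards. After three days, luminescence-based viability is measured and calculated relative to DMSO.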

[4] = biological target: CDK12–cyclin K (Homo sapiens, UniProt Q9NYV4); assay: Lanthascreen kinase binding assay, CDK12; settings: for Lanthascreen raw signal, sheet CDK12: series r1, duplicates
Procedure: (§1) Lanthascreen experiments were performed using commercially available reagents (Thermo Fisher) and according to the manufacturer’s instructions.

[5] = biological target: T2, CDK9–cyclin T (Homo sapiens, UniProt P50750); assay: Lanthascreen kinase binding assay, CDK9; settings: for Lanthascreen TR-FRET signal (raw ratio), sheet CDK9: first titration set (r1), duplicates
T2 construct: purchased Thermo Fisher
Procedure: as §1

[6] = biological target: T3, CDK2–cyclin A (Homo sapiens, UniProt P24941); assay: Lanthascreen kinase binding assay, CDK2; settings: for Lanthascreen signal, sheet CDK2: raw replicates, experiment r1-r11
T3 construct: purchased Thermo Fisher
Procedure: as §1

Chain of CDK12–cyclin K (Q9NYV4 713-1052): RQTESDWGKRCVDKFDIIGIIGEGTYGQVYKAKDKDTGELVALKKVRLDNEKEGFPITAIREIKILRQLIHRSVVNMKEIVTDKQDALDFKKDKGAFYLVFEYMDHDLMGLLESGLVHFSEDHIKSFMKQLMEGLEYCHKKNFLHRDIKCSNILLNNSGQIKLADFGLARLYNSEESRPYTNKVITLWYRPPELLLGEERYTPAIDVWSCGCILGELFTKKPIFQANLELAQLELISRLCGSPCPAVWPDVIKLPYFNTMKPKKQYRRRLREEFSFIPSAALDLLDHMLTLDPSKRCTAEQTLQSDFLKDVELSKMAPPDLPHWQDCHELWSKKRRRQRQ
Chain of CDK12–cyclin K (O75909 1-267 partner limits assumed): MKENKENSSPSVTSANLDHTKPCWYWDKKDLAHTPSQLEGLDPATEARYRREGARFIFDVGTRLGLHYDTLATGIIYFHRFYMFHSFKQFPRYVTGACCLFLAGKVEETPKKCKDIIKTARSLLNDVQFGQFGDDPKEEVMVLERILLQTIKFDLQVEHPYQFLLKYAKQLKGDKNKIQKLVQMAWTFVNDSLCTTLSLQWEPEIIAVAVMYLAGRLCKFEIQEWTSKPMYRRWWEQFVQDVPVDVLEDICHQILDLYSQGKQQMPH
T2 sequence (P50750 whole entry): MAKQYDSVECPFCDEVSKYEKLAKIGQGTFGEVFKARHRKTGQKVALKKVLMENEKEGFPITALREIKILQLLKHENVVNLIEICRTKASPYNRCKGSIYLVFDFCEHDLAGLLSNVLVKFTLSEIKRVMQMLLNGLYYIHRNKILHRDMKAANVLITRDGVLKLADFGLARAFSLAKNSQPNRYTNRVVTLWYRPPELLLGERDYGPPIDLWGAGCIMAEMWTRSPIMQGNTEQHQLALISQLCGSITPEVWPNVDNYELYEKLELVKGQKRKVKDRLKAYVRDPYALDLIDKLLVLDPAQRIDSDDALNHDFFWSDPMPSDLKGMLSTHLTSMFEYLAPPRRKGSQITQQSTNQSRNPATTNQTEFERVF
T2 sequence (O60563 whole entry partner): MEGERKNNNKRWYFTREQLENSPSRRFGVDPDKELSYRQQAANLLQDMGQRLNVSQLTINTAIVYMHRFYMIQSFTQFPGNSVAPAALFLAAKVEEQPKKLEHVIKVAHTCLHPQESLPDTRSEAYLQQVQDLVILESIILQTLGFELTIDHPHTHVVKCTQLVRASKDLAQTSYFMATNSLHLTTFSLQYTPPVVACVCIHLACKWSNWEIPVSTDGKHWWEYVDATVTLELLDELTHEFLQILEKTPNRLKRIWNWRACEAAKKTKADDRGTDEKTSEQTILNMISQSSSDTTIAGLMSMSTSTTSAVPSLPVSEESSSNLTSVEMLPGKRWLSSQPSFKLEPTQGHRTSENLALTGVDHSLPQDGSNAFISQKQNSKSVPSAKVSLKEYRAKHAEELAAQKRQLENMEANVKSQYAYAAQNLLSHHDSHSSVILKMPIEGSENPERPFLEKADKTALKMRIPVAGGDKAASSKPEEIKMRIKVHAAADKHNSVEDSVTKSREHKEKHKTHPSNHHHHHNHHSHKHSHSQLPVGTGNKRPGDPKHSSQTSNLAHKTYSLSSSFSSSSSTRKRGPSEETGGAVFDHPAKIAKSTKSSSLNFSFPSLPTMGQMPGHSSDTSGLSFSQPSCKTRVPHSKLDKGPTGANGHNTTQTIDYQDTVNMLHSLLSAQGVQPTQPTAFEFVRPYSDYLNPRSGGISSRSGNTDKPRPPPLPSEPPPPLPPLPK
T1 sequence (Q9NYV4 713-1052 K965R): as the sequence (Q9NYV4 713-1052) above, with K253R counted along it
T1 sequence (O75909 1-267 partner): as the sequence (O75909 1-267 partner limits assumed) above
T1 sequence (Q16531 whole entry): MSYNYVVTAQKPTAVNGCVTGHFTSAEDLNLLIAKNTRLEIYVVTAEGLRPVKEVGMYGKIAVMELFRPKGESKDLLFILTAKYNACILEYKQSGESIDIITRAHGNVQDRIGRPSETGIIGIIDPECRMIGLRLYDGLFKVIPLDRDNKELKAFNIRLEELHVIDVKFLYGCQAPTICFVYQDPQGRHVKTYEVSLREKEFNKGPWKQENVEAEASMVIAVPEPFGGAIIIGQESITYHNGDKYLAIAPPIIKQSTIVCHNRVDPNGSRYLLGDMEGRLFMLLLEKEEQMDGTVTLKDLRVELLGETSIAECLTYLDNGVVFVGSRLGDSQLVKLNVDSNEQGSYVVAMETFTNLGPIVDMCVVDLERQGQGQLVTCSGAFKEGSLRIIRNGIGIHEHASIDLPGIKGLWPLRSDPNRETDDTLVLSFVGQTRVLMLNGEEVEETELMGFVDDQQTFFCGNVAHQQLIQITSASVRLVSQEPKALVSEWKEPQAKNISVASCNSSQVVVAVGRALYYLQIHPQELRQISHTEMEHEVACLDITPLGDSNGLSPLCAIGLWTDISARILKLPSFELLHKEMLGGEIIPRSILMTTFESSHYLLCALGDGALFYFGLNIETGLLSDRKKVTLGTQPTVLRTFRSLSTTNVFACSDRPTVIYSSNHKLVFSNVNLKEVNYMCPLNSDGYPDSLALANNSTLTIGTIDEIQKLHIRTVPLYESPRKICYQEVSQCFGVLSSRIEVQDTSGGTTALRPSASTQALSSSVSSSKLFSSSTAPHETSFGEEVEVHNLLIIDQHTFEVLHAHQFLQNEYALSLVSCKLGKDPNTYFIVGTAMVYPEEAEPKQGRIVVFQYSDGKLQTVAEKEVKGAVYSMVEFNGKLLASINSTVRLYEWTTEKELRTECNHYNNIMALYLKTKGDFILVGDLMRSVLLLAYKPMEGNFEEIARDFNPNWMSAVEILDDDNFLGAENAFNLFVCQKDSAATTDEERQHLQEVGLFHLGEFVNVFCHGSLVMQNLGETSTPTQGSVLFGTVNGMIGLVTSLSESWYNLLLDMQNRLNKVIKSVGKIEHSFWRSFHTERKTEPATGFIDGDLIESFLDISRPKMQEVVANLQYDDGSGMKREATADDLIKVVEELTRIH

## O=C(CCn1cnc2ccccc2c1=O)Nc1ccc(Br)cn1 [Z7]
[1]; Supplementary Table 2, read-out: TR-FRET EC50 TR-FRET
  EC50: 303 nM
[1]; compound concentration 0.468 nM
  TR-FRET signal: 0.3146 and 0.2937
[1]; compound concentration 2.16 nM
  TR-FRET signal: 0.327 and 0.3142
[1]; compound concentration 3.6 nM
  TR-FRET signal: 0.3516 and 0.3492
[1]; compound concentration 4.68 nM
  TR-FRET signal: 0.1778 and 0.177
[1]; compound concentration 7.92001 nM
  TR-FRET signal: 0.4103 and 0.4025
[1]; compound concentration 15.84 nM
  TR-FRET signal: 0.4987 and 0.4962
[1]; compound concentration 21.6 nM
  TR-FRET signal: 0.3031 and 0.3042
[1]; compound concentration 30.96 nM
  TR-FRET signal: 0.6587 and 0.6967
[1]; compound concentration 36 nM
  TR-FRET signal: 0.5003 and 0.5187
[1]; compound concentration 62.6401 nM
  TR-FRET signal: 0.9444 and 1.024
[1]; compound concentration 79.2001 nM
  TR-FRET signal: 0.8582 and 0.8909
[1]; compound concentration 125.28 nM
  TR-FRET signal: 1.324 and 1.444
[1]; compound concentration 158.4 nM
  TR-FRET signal: 1.305 and 1.368
[1]; compound concentration 244.8 nM
  TR-FRET signal: 1.9166 and 1.983
[1]; compound concentration 309.6 nM
  TR-FRET signal: 1.882 and 1.916
[1]; compound concentration 626.401 nM
  TR-FRET signal: 2.43 and 2.4997
[1]; compound concentration 993.601 nM
  TR-FRET signal: 2.9527 and 2.952
[1]; compound concentration 1252.8 nM
  TR-FRET signal: 2.93 and 3.011
[1]; compound concentration 2001.6 nM
  TR-FRET signal: 3.382 and 3.238
[1]; compound concentration 2448 nM
  TR-FRET signal: 3.265 and 3.3741
[1]; compound concentration 9936.01 nM
  TR-FRET signal: 3.59 and 3.595
[1]; compound concentration 20016 nM
  TR-FRET signal: 3.713 and 3.698
[1]; in vitro complex formation, 50 nM CDK12–cyclin K, 100 nM DDB1, text and figures, read-out: TR-FRET EC50
  EC50: 303 ± 16 nM
[1]; sheet MOESM7, read-out: log TR-FRET EC50 (converted)
  EC50: 303 nM
[2]
  DC50: > 10000 nM
[3]; Homo sapiens, HEK-293T, HEK293T viability, 72 h, compound alone, read-out: Cellular assays EC50
  EC50: > 10000 nM
[3]; MLN4924-mediated cytotoxicity rescue, 10 µM used where n.d.
  Toxicity rescue: 0%
[4]; Lanthascreen, average, Extended Data Fig. 8, read-out: CDK12 IC50
  IC50: > 10000 nM
[4]; Supplementary Table 2, read-out: Lanthascreen IC50 [nM] CDK12
  IC50: > 10000 nM
[4]; compound 1.02544 nM
  Lanthascreen raw signal, sheet CDK12: 0.009993 and 0.009189
[4]; compound 3.15521 nM
  Lanthascreen raw signal, sheet CDK12: 0.007678 and 0.01017
[4]; compound 9.46563 nM
  Lanthascreen raw signal, sheet CDK12: 0.008332 and 0.008957
[4]; compound 31.5521 nM
  Lanthascreen raw signal, sheet CDK12: 0.009201 and 0.006925
[4]; compound 99.3891 nM
  Lanthascreen raw signal, sheet CDK12: 0.01004 and 0.007454
[4]; compound 315.521 nM
  Lanthascreen raw signal, sheet CDK12: 0.008681 and 0.00881
[4]; compound 3155.21 nM
  Lanthascreen raw signal, sheet CDK12: 0.008543 and 0.006433
[4]; compound 10002 nM
  Lanthascreen raw signal, sheet CDK12: 0.006174 and 0.006044
[5]; Supplementary Table 2, read-out: Lanthascreen IC50 [nM] CDK9
  IC50: 873 nM
[5]; compound 1.02544 nM
  Lanthascreen TR-FRET signal (raw ratio), sheet CDK9: 0.01205 and 0.01344
[5]; compound 3.15521 nM
  Lanthascreen TR-FRET signal (raw ratio), sheet CDK9: 0.01275 and 0.01665
[5]; compound 9.46563 nM
  Lanthascreen TR-FRET signal (raw ratio), sheet CDK9: 0.01222 and 0.01758
[5]; compound 31.5521 nM
  Lanthascreen TR-FRET signal (raw ratio), sheet CDK9: 0.01391 and 0.02091
[5]; compound 99.3891 nM
  Lanthascreen TR-FRET signal (raw ratio), sheet CDK9: 0.01184 and 0.01953
[5]; compound 315.521 nM
  Lanthascreen TR-FRET signal (raw ratio), sheet CDK9: 0.01137 and 0.01786
[5]; compound 3155.21 nM
  Lanthascreen TR-FRET signal (raw ratio), sheet CDK9: 0.003916 and 0.005427
[5]; compound 10002 nM
  Lanthascreen TR-FRET signal (raw ratio), sheet CDK9: 0.004637 and 0.003497
[6]; Compound 1.02544 nM
  Lanthascreen signal, sheet CDK2: 0.01007 and 0.009144
[6]; Compound 3.15521 nM
  Lanthascreen signal, sheet CDK2: 0.0112 and 0.008273
[6]; Compound 9.46563 nM
  Lanthascreen signal, sheet CDK2: 0.0109 and 0.01003
[6]; Compound 31.5521 nM
  Lanthascreen signal, sheet CDK2: 0.009356 and 0.009077
[6]; Compound 99.3891 nM
  Lanthascreen signal, sheet CDK2: 0.01058 and 0.01018
[6]; Compound 315.521 nM
  Lanthascreen signal, sheet CDK2: 0.009946 and 0.008466
[6]; Compound 3155.21 nM
  Lanthascreen signal, sheet CDK2: 0.009117 and 0.008683
[6]; Compound 10002 nM
  Lanthascreen signal, sheet CDK2: 0.008076 and 0.006678
[6]; Lanthascreen, average, Extended Data Fig. 8, read-out: CDK2 IC50
  IC50: > 10000 nM
[6]; Supplementary Table 2, read-out: Lanthascreen IC50 [nM] CDK2
  IC50: > 10000 nM
